Results from ChEMBL document CHEMBL1201862, “PubChem BioAssay data set” (2004).
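Cultured in 96-well plates, cells were exposed to test compound for 48 hours across five concentrations. At the GI50, growth is halved.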 Calls of active or inactive are those of the source. Rule as the data show it: active = GI50 up to about 1.1 µM and inactive = higher.

Experiments:
Assay in all cases: NCI-60 cell line screen, 48 h
[1] = system: HOP-62
[2] = system: HOP-92
[3] = system: NCI-H460
[4] = system: NCI-H23
[5] = system: HT-29
[6] = system: KM12
[7] = system: OVCAR-8
[8] = system: M14
[9] = system: SNB-75
[10] = system: Malme-3M
[11] = system: SNB-19
[12] = system: SN12C
[13] = system: COLO 205
[14] = system: CAKI-1
[15] = system: SF-268
[16] = system: HCC 2998
[17] = system: A549
[18] = system: HCT-116

Measured: GI50

Nc1ccccc1SC(/C=C/NNC1=NN=C(c2ccccc2)C(c2ccccc2)N1)c1ccccc1 (stereo not given)
inactive: [1] 19.5 µM | [2] 8.57 µM | [3] 18.5 µM | [4] 5.85 µM | [5] 17.1 µM | [6] 12.7 µM | [7] 18.1 µM | [8] 12.4 µM | [9] 4.72 µM | [10] 15.9 µM | [11] 18.7 µM | [12] 17 µM | [13] 15.6 µM | [14] 10.6 µM | [15] 5.64 µM | [16] 16.5 µM | [17] 15.2 µM

O=[N+]([O-])c1cc(C2SCc3nc4ccccc4n32)ccc1Cl (stereo not given)
inactive: [18] 17.8 µM | [2] 25.1 µM | [3] 31.8 µM | [4] 16.1 µM | [5] 30.8 µM | [6] 16.7 µM | [7] 30.3 µM | [9] 28.7 µM | [10] 34.8 µM | [11] 45.9 µM | [12] 12 µM | [13] 22.1 µM | [14] 33.3 µM | [15] 20.7 µM | [16] 18.4 µM | [17] 33.1 µM

CC1=C(C(=O)Nc2cc(=O)n(C)c(=O)n2C)C(c2ccc([N+](=O)[O-])cc2)C(C(=O)Nc2cc(=O)n(C)c(=O)n2C)=C(C)N1
inactive: [18] 74.3 µM | [1] 18.1 µM | [2] 26.7 µM | [3] > 100 µM | [4] > 100 µM | [5] > 100 µM | [6] > 100 µM | [7] 68.1 µM | [8] > 100 µM | [9] 42 µM | [10] > 100 µM | [11] > 100 µM | [12] > 100 µM | [13] > 100 µM | [15] > 100 µM | [16] 94.8 µM | [17] > 100 µM

CCOC(=O)C(C(C)=O)C1CC=CC1 (stereo not given)
inactive: [18] > 100 µM | [1] > 100 µM | [2] > 100 µM | [3] > 100 µM | [5] > 100 µM | [6] > 100 µM | [7] > 100 µM | [8] > 100 µM | [9] > 100 µM | [10] > 100 µM | [11] > 100 µM | [12] > 100 µM | [13] > 100 µM | [14] > 100 µM | [16] > 100 µM | [17] > 100 µM

CCn1cc(C(=O)O)c(=O)c2cc(F)c(N3CCNCC3)nc21 [ENOXACIN]
inactive: [18] 65.6 µM | [1] > 100 µM | [2] 32.8 µM | [3] > 100 µM | [4] 31.1 µM | [5] > 100 µM | [6] 79.3 µM | [7] > 100 µM | [8] > 100 µM | [9] > 100 µM | [10] 74.1 µM | [11] > 100 µM | [12] 68.7 µM | [13] > 100 µM | [15] > 100 µM | [16] > 100 µM | [17] > 100 µM

CCN(CC)C(=O)c1c(N2CCOCC2)cc(N(CC)CC)oc1=O
inactive: [18] > 100 µM | [1] > 100 µM | [2] > 100 µM | [3] > 100 µM | [4] > 100 µM | [5] > 100 µM | [6] > 100 µM | [7] > 100 µM | [8] > 100 µM | [9] > 100 µM | [10] > 100 µM | [11] > 100 µM | [12] > 100 µM | [13] > 100 µM | [15] > 100 µM | [16] > 100 µM | [17] > 100 µM

O=C1N(c2ccccc2)C2(O)C(=O)c3ccccc3C2(O)N1c1ccccc1 (stereo not given)
inactive: [18] > 100 µM | [1] > 100 µM | [3] > 100 µM | [4] > 100 µM | [5] > 100 µM | [6] > 100 µM | [7] > 100 µM | [8] > 100 µM | [9] > 100 µM | [10] > 100 µM | [11] > 100 µM | [12] > 100 µM | [13] > 100 µM | [14] > 100 µM | [15] > 100 µM | [16] > 100 µM | [17] > 100 µM

Cc1cc(C)cc(-n2c3nc(=O)n(C)c(=O)c-3nc3ccccc32)c1
inactive: [18] 23.9 µM | [1] 45.4 µM | [3] 23.9 µM | [4] 15.7 µM | [5] 10.3 µM | [6] 27.1 µM | [7] 27.6 µM | [8] 27 µM | [9] 34.9 µM | [10] 16 µM | [11] 22.1 µM | [12] 26.8 µM | [13] 7.29 µM | [14] 37.8 µM | [15] 65.6 µM | [16] 18.1 µM | [17] 26.7 µM

CC(=O)CC(=O)Nc1ccccc1C(F)(F)F
inactive: [18] > 100 µM | [1] > 100 µM | [2] > 100 µM | [3] > 100 µM | [4] > 100 µM | [7] > 100 µM | [8] > 100 µM | [9] > 100 µM | [10] > 100 µM | [11] > 100 µM | [12] > 100 µM | [13] > 100 µM | [14] > 100 µM | [15] > 100 µM | [16] > 100 µM | [17] > 100 µM

C/C(=N\NC(=S)N(C)C)c1ncc[nH]1
inactive: [18] 3.56 µM | [2] 2.47 µM | [3] 3.24 µM | [4] 2.1 µM | [5] 5.73 µM | [6] 5.21 µM | [7] 3.94 µM | [8] 2.31 µM | [9] 7.57 µM | [10] 3.36 µM | [11] 4.42 µM | [12] 3.95 µM | [15] 3.56 µM | [16] 3.52 µM | [17] 3.38 µM

COC(=O)[C@@H]1CN(C(=O)Cc2ccccc2)C(=O)N1
inactive: [18] > 100 µM | [1] > 100 µM | [2] > 100 µM | [3] > 100 µM | [4] > 100 µM | [5] > 100 µM | [6] > 100 µM | [7] > 100 µM | [8] > 100 µM | [9] 93.8 µM | [10] > 100 µM | [11] > 100 µM | [12] > 100 µM | [13] > 100 µM | [14] > 100 µM | [15] > 100 µM | [17] > 100 µM

CCCc1c[nH]c(-c2ccc(-c3cc(CCC)c(C=O)[nH]3)s2)c1
inactive: [18] 18 µM | [3] 4.55 µM | [4] 26.5 µM | [5] 5.38 µM | [6] 14.7 µM | [7] 13.6 µM | [8] 12.1 µM | [9] 19.8 µM | [10] 15.2 µM | [11] 22 µM | [12] 15.6 µM | [15] 18.3 µM | [17] 5.83 µM
